Values of other authors as cited in patent US20120093738A1, “TASTE-MASKED ORAL FORMULATIONS OF INFLUENZA ANTIVIRALS” (Rubicon Research Private Limited, priority 2009, published 2012).

Conditions: reconstituted multi-dose suspensions

Structure (SMILES): CCOC(=O)C1=C[C@@H](OC(CC)CC)[C@H](NC(C)=O)[C@@H](N)C1 [oseltamivir phosphate]
- time within which the suspension needs to be used: ≤ 10 days
